Results taken from patent publication US8946426B2, “Substituted bicyclic heterocyclic compounds as gamma secretase modulators” (Janssen Pharmaceuticals, Inc., priority 2009, dated 2015).

Legend:
Aβ42 = assay: Method 1: Aβ42 sandwich ELISA in supernatant of SKNBE2 cells carrying APP 695-wild type (Tables 7a, 7b); format: cell-based
Experimental: (§1) Screening was carried out using SKNBE2 cells carrying the APP 695-wild type, grown in Dulbecco's Modified Eagle's Medium/Nutrient mixture F-12 (DMEM/NUT-mix F-12) (HAM) provided by Gibco (cat no. 31330-38) containing 5% Serum/Fe supplemented with 1% non-essential amino acids. Cells were grown to near confluency.
(§2) The screening was performed using the assay as described in Citron et al (1997) Nature Medicine 3: 67. Briefly, cells were plated in a 96-well plate at about 10^5 cells/ml one day prior to addition of compounds. Compounds were added to the cells in Ultraculture (Lonza, BE12-725F) supplemented with 1% glutamine (Invitrogen, 25030-024) for 18 Hours. The media were assayed by two sandwich ELISAs, for Aβ42 and Aβtotal. Toxicity of the compounds was assayed by WST-1 cell proliferation reagent (Roche, 1 644 807) according to the manufacturer's protocol.
To quantify the amount of Aβ42 in the cell supernatant, commercially available Enzyme-Linked-Immunosorbent-Assay (ELISA) kits were used (Innotest® β-Amyloid(1-42), Innogenetics N.V., Ghent, Belgium). The Aβ42 ELISA was performed essentially according to the manufacturer's protocol. Briefly, the standards (dilutions of synthetic Aβ1-42) were prepared in polypropylene Eppendorf with final concentrations of 8000 down to 3.9 pg/ml (½ dilution step). Samples, standards and blanks (100 μl) were added to the anti-Aβ42-coated plate supplied with the kit (the capture antibody selectively recognizes the C-terminal end of the antigen). The plate was allowed to incubate 3 H at 25° C. in order to allow formation of the antibody-amyloid complex. Following this incubation and subsequent wash steps a selective anti-Aβ-antibody conjugate (biotinylated 3D6) was added and incubated for a minimum of 1 Hour in order to allow formation of the antibody-Amyloid-antibody-complex. After incubation and appropriate wash steps, a Streptavidine-Peroxidase-Conjugate was added, followed 30 minutes later by an addition of 3,3′,5,5′-tetramethylbenzidine (TMB)/peroxide mixture, resulting in the conversion of the substrate into a coloured product. This reaction was stopped by the addition of sulfuric acid (0.9 N) and the colour intensity was measured by means of photometry with an ELISA-reader with a 450 nm filter.
(§3) To obtain the values reported in Table 7a, the sigmoidal dose response curves were analysed by computerised curve-fitting, with percent of inhibition plotted against compound concentration. A 4-parameter equation (model 205) in XLfit was used to determine the IC50. The top and the bottom of the curve were fixed to 100 and 0, respectively, and the hill slope was fixed to 1. The IC50 represents the concentration of a compound that is required for inhibiting a biological effect by 50% (Here, it is the concentration where Aβ peptide level is reduced by 50%).
(§4) To obtain the values reported in Table 7b, the data were calculated as percentage of the maximum amount of amyloid Beta 42 measured in the absence of the test compound. The sigmoidal dose response curves were analyzed using non-linear regression analysis with percentage of the control plotted against the log concentration of the compound. A 4-parameter equation was used to determine the IC50. The values reported in Table 7b are averaged IC50 values.

Aβtotal = assay: Method 1: Aβtotal sandwich ELISA in supernatant of SKNBE2 cells carrying APP 695-wild type (Tables 7a, 7b); format: cell-based
Experimental: as §1, §2
To quantify the amount of Aβtotal in the cell supernatant, samples and standards were added to a 6E10-coated plate. The plate was allowed to incubate overnight at 4° C. in order to allow formation of the antibody-amyloid complex. Following this incubation and subsequent wash steps a selective anti-Aβ-antibody conjugate (biotinylated 4G8) was added and incubated for a minimum of 1 Hour in order to allow formation of the antibody-Amyloid-antibody-complex. After incubation and appropriate wash steps, a Streptavidine-Peroxidase-Conjugate was added, followed 30 minutes later by an addition of Quanta Blu fluorogenic peroxidase substrate according to the manufacturer's instructions (Pierce Corp., Rockford, Ill.).
as §3, §4

[1] = Table 7a, SKNBE2 cells, compounds 18 h, XLfit 4-parameter fit of percent inhibition, top/bottom fixed to 100/0, hill slope 1
[2] = Table 7b, averaged IC50, non-linear regression of percentage of control vs log concentration, 4-parameter equation
[3] = Homo sapiens, SKNBE2, Table 7b, averaged IC50, non-linear regression of percentage of control vs log concentration, 4-parameter equation
[4] = Homo sapiens, Table 7a, SKNBE2 cells, compounds 18 h, XLfit 4-parameter fit of percent inhibition, top/bottom fixed to 100/0, hill slope 1

Structure (SMILES) | IC50 (Aβ42; [2]) [nM] | IC50 (Aβtotal; [2]) [nM] | other results
COc1cc(-c2nc3c(Nc4ccc(-c5ocnc5C)cn4)cccc3n2C)ccc1Cl [Compound 33] | 141 | > 10000 | IC50 (Aβ42; [1]): 102 nM; IC50 (Aβtotal; [1]): > 10000 nM
COc1cc(Nc2cccn3c(C)c(-c4ccccc4)nc23)ccc1-c1oc(C)nc1C [Compound 8] |  |  | IC50 (Aβ42; [3]): 282 nM; IC50 (Aβ42; [4]): 275 nM; IC50 (Aβtotal; [3]): > 5000 nM; IC50 (Aβtotal; [4]): > 5000 nM
Cc1ncoc1-c1ccc(Nc2cccc3c2nc(-c2ccc(F)cc2)n3C(C)(C)C)cn1 [Compound 34] | 110 | > 3000 | IC50 (Aβ42; [1]): 16 nM; IC50 (Aβtotal; [1]): > 3000 nM
Cc1ncc(-c2ccc(Nc3nc(Br)cn4cc(-c5ccc(F)cc5C)nc34)cc2)o1 [Compound 60] | 3020 | > 3000 | 
COc1cccc(-c2nc3c(Nc4ccc(-c5cn(C)nc5C)c(OC)c4)cccn3c2C)c1 [Compound 6] |  |  | IC50 (Aβ42; [3]): 102 nM; IC50 (Aβ42; [4]): 77 nM; IC50 (Aβtotal; [3]): > 3000 nM; IC50 (Aβtotal; [4]): > 3000 nM
COc1cc(Nc2nccc3c2nc(CCC(F)(F)F)n3C)ccc1-c1cnc(C)o1 [Compound 91] | 1440 | 66100 | 
Cn1nccc1-c1ccc(Nc2cccc3c2nc(-c2ccc(F)cc2)n3C)nc1 [Compound 71] | 1950 | > 3000 | 
Cc1ncc(-c2ccc(Nc3cccc4c3nc(-c3ccc(F)cc3)n4C)cn2)o1 [Compound 29] | 28 | > 3000 | IC50 (Aβ42; [1]): 29 nM; IC50 (Aβtotal; [1]): > 3000 nM
Cc1ncoc1-c1ccc(Nc2cccc3c2nc(-c2ccc(F)cc2)n3C)cc1 [Compound 124] | 51 | > 3000 | 
COc1cccc(-c2nc3c(Nc4ccc(-c5ocnc5C)c(OC)c4)cc(C#N)cc3n2C)c1 [Compound 122] | 38 | > 3000 | 
COc1cc(Nc2cc(C#N)cc3c2nc(-c2ccc(F)cc2)n3C)ccc1-c1ocnc1C [Compound 123] | 26 | > 1000 | 
Cc1ncc(-c2ccc(Nc3nccc4c3nc(-c3ccc(F)cc3F)n4C)cc2F)o1 [Compound 55] | 3020 | > 10000 | 
Cc1ccc(-c2cn3cccc(Nc4ccc(-c5ocnc5C)nc4)c3n2)c(F)c1 [Compound 45] | 813 | > 30000 | IC50 (Aβ42; [1]): 848 nM; IC50 (Aβtotal; [1]): > 30000 nM

Further lines, with some results ahead:

IC50 (Aβ42; [2]) [nM] | IC50 (Aβtotal; [2]) [nM] | Structure (SMILES) | other results
295 | > 3000 | Cc1ncc(-c2ccc(Nc3cncc4c3nc(-c3ccc(F)cc3)n4C)cn2)o1 [Compound 200] | 
1100 | > 3000 | Cc1ncc(-c2ccc(Nc3cc(F)cc4c3nc(N3CCCC3)n4C)cc2)o1 [Compound 90] | 
676 | > 3000 | COc1cc(Nc2cc(C(F)(F)F)nn3cc(C)nc23)ccc1-c1ocnc1C [Compound 196] | 
71 | > 3000 | COc1cccc(-c2nc3c(Nc4ccc(-c5cnc(C)o5)cc4)nc(C)cc3n2C)c1 [Compound 98] | 
55 | > 3000 | COc1cc(Nc2cccc3c2nc(-c2ccc(F)cc2)n3C)ccc1-c1oc(C)nc1C [Compound 24] | IC50 (Aβ42; [1]): 56 nM; IC50 (Aβtotal; [1]): > 3000 nM
182 | > 3000 | Cc1ncc(-c2ccc(Nc3cccc4c3nc(-c3ccc(F)cc3)n4C)cn2)s1 [Compound 76] | 
2570 | > 3000 | COc1cc(Nc2nc(C)cc3c2nc(C2CCOCC2)n3C)ccc1-c1cnc(C)o1 [Compound 92] | 
132 | > 10000 | COc1cc(Nc2cccn3cc(-c4cc(F)ccc4C)nc23)ccc1-c1cnc(C)o1 [Compound 48] | 
138 | > 3000 | Cc1ncoc1-c1ccc(Nc2cccn3cc(C4CC4)nc23)cn1 [Compound 160] | 
9770 | > 30000 | COc1cc(Nc2cc(C(F)(F)F)cn3cc(C(=O)N(C)C)nc23)ccc1-c1ocnc1C [Compound 143] | 
282 | > 10000 | Cc1ncoc1-c1ccc(Nc2cccc3c2nc(-c2cccc(Cl)c2)n3C)nc1 [Compound 32] | IC50 (Aβ42; [1]): 235 nM; IC50 (Aβtotal; [1]): > 10000 nM
9 | > 3000 | COc1cccc(-c2nc3c(Nc4ccc(-c5cnc(C)o5)cc4)cccc3n2C(C)C)c1 [Compound 21] | 
